Laboratory results: patent US12371428B2 (Exelixis, Inc., priority 2019, dated 2025)
Like-named read-outs stand apart in the source and are kept apart here.

Tests used:
[1] = target: Human MET (residues 956-1390) (Homo sapiens (Human), UniProt P08581); test: Human Met kinase assay, HTRF KinEase (Example D-2); assay type: biochemical; conditions: read-out: c-Met IC50
In short: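 IC50 values come from a 4-parameter logistic fit of the […] fluorescence ratio, set between DMSO (100%) and reference compound at 1 μM (0%). Reactions held MET 956-1390 at 0.1 ng/well, ATP at Km, biotinylated peptide, 5 mM MgCl2, 1 mM MnCl2, 1 mM DTT and 3% DMSO, and ran 40 min at room temperature before streptavidin-XL665/Eu-antibody detection.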

[2] = target: KDR (phospho-KDR, VEGF165-stimulated HUVEC cells) (Homo sapiens (Human), UniProt P35968); test: KDR autophosphorylation ELISA in HUVEC cells (Example G); assay type: cell-based; conditions: cellular activity; KDR autophosphorylation ELISA in HUVEC cells
Chain of KDR (phospho-KDR, VEGF165-stimulated HUVEC cells) (P35968 20-1356): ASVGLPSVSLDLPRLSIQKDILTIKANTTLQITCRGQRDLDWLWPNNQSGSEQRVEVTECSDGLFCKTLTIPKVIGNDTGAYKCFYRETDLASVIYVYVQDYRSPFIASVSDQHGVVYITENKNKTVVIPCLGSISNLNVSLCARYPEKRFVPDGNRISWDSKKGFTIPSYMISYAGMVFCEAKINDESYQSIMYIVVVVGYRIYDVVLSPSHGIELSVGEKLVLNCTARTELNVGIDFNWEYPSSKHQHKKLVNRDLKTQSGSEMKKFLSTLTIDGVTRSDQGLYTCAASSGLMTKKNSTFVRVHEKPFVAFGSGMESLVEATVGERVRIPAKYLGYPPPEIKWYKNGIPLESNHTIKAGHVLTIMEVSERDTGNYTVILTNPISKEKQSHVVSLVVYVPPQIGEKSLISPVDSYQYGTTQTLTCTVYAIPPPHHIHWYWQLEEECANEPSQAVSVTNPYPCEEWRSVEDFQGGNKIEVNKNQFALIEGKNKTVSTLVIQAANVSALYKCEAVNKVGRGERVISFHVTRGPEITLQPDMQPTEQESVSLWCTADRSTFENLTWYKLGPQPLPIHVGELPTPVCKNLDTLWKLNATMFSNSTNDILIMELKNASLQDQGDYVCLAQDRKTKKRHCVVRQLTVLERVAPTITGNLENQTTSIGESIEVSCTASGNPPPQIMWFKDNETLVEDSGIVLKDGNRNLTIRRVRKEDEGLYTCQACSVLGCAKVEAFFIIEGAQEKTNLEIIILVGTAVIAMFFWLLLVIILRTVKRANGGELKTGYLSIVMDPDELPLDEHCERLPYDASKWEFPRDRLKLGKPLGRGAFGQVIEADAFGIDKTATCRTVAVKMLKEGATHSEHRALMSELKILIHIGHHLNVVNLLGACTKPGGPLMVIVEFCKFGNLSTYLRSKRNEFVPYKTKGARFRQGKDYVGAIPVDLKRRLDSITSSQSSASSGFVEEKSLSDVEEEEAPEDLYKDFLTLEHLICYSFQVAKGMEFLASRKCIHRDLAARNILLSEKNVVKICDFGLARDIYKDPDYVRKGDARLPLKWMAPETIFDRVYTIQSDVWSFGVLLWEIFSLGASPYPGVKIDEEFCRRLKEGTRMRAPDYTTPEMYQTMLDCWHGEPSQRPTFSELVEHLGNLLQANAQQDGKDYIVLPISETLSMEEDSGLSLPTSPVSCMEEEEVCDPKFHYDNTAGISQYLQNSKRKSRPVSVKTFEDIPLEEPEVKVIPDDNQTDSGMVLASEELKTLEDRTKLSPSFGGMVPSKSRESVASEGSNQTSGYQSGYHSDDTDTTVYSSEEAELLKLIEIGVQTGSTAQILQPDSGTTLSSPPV
In short: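 First, endothelial cells were cultured a day, then kept without serum for another day. Next came 1 h with serially diluted compound, a brief 5 min VEGF165 stimulus (100 ng/mL), rapid lysis, and ELISA detection of receptor phosphorylation relative to stimulated and non-stimulated controls.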

[3] = target: Mer (phospho-Mer, MERTK-transfected 293A cells) (Homo sapiens (Human), UniProt Q12866); test: Mer autophosphorylation ELISA in transient transfected 293A cells (Example H); assay type: cell-based; conditions: cellular activity; Mer autophosphorylation ELISA in transient transfected 293A cells
Chain of Mer (phospho-Mer, MERTK-transfected 293A cells) (Q12866 21-999): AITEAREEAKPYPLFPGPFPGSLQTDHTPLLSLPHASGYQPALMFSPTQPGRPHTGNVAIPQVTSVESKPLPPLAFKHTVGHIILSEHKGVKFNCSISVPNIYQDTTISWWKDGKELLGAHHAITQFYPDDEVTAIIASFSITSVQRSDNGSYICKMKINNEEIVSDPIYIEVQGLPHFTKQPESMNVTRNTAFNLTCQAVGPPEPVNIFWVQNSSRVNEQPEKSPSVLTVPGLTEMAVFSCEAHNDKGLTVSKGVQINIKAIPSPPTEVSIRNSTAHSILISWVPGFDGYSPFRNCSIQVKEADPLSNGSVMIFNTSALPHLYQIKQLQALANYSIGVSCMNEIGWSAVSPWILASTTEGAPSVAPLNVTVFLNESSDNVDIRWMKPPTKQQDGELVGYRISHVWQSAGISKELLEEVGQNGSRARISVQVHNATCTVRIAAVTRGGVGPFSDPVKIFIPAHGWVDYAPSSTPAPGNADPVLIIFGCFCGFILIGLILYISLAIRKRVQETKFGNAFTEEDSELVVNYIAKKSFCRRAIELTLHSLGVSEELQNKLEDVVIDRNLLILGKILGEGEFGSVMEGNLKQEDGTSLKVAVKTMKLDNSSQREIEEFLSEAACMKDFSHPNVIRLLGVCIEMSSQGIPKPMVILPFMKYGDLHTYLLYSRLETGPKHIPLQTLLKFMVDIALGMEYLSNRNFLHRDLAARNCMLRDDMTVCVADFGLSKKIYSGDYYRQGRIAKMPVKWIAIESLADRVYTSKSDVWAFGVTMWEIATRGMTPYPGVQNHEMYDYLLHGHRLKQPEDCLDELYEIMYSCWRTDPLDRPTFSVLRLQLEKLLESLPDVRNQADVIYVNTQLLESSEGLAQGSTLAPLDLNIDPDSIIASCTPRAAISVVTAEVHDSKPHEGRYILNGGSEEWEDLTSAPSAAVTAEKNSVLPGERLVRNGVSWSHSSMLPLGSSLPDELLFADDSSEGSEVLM
In short: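 IC50 from 4-parameter logistic fit of phospho-Mer levels, quantified by ELISA against a phospho-Mer standard in lysates of MERTK-transfected 293A cells. Cells exposed 1 h to 8-point serial dilutions, serum-free, 0.3% DMSO; controls: DMSO (100%) and reference inhibitor (0%).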

[4] = protocol of Example D-2 (other compounds)

Chain of Human MET (residues 956-1390) (P08581 956-1390): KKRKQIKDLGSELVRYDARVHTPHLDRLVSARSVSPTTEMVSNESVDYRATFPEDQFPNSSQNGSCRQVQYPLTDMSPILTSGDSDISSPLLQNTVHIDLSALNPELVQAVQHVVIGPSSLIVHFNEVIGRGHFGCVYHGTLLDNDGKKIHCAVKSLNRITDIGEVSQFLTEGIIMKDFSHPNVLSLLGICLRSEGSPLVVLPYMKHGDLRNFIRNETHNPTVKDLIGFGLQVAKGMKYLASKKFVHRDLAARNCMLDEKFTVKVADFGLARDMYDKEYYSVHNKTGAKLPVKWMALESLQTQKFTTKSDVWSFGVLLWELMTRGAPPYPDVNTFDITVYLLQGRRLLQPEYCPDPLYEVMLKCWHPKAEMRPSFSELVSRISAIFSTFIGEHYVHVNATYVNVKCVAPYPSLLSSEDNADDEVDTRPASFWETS

SMILES | IC50 ([1]; protocol of Example D-2) [nM] | IC50 [2] [nM] | IC50 [3] [nM] | IC50 [1, 4] [nM]
COc1cc2nccc(Oc3ccc(NC(=O)c4cn(C)c(C(=O)O)c(-c5ccc(F)cc5)c4=O)cc3F)c2nc1OC [Compound 553, 5-[[4-[(6,7-Dimethoxy-1,5-naphthyridin-4-yl)oxy]-3-fluorophenyl]carbamoyl]-3-(4-fluorophenyl)-1-methyl-4-oxopyridine-2-carboxylic acid] | < 100 | > 300 | 100 to 300 | 
CCn1cc(C(=O)Nc2ccc(Oc3ccnc4cc(OC)cnc34)c(F)c2)c(=O)c(-c2ccc(F)cc2)c1CF [Compound 559, 1-Ethyl-N-[3-fluoro-4-[(7-methoxy-1,5-naphthyridin-4-yl)oxy]phenyl]-6-(fluoromethyl)-5-(4-fluorophenyl)-4-oxopyridine-3-carboxamide] | < 100 | > 300 | < 100 | 
COc1cc2nccc(Oc3ccc(NC(=O)c4cnc(SC(C)C)n(-c5ccc(F)cc5)c4=O)cc3)c2cc1OC [Compound 539, N-[4-(6,7-dimethoxyquinolin-4-yl)oxyphenyl]-1-(4-fluorophenyl)-6-oxo-2-propan-2-ylsulfanylpyrimidine-5-carboxamide] | 100 to 300 | > 300 | < 100 | 
COc1cnc2c(Oc3ccc(NC(=O)c4cc(C)nn(-c5ccc(F)cc5)c4=O)cc3F)ccnc2c1 [Compound 521, N-[3-fluoro-4-[(7-methoxy-1,5-naphthyridin-4-yl)oxy]phenyl]-2-(4-fluorophenyl)-6-methyl-3-oxopyridazine-4-carboxamide] | < 100 | > 300 | > 300 | 
CCn1cc(C(=O)Nc2ccc(Oc3ccnc4cc(OC)c(OC)nc34)cc2)c(=O)c(-c2ccc(F)cc2)c1CF [Compound 558, N-[4-[(6,7-Dimethoxy-1,5-naphthyridin-4-yl)oxy]phenyl]-1-ethyl-6-(fluoromethyl)-5-(4-fluorophenyl)-4-oxopyridine-3-carboxamide] | 100 to 300 | 100 to 300 | < 100 | 
COc1cc2nccc(Oc3ccc(NC(=O)c4cn(C)cc(-c5ccc(F)cc5C)c4=O)cc3F)c2nc1OC [Compound 503, N-[4-[(6,7-dimethoxy-1,5-naphthyridin-4-yl)oxy]-3-fluorophenyl]-5-(4-fluoro-2-methylphenyl)-1-methyl-4-oxopyridine-3-carboxamide] | < 100 | < 100 | < 100 | 
COc1cc2nccc(Oc3ccc(NC(=O)c4cnc(C)c(-c5ccc(F)cc5)c4O)cc3F)c2nc1C [Compound 541, N-[3-fluoro-4-[(7-methoxy-6-methyl-1,5-naphthyridin-4-yl)oxy]phenyl]-5-(4-fluorophenyl)-4-hydroxy-6-methylpyridine-3-carboxamide] | < 100 | < 100 | < 100 | 
COc1cc2nccc(Oc3cc(F)c(NC(=O)c4cnc(C)c(-c5ccc(F)cc5)c4O)cc3F)c2nc1C [Compound 542, N-[2,5-difluoro-4-[(7-methoxy-6-methyl-1,5-naphthyridin-4-yl)oxy]phenyl]-5-(4-fluorophenyl)-4-hydroxy-6-methylpyridine-3-carboxamide] | < 100 | < 100 | < 100 | 
Cc1ccc2nccc(Oc3ccc(NC(=O)c4c(C)nc(C)c(-c5ccc(F)cc5C)c4O)cc3F)c2n1 [Compound 506, N-[3-fluoro-4-[(6-methyl-1,5-naphthyridin-4-yl)oxy]phenyl]-5-(4-fluoro-2-methylphenyl)-4-hydroxy-2,6-dimethylpyridine-3-carboxamide] | < 100 | < 100 | < 100 | 
COc1cnc2c(Oc3ccc(NC(=O)c4ccnn(-c5ccc(F)cc5C)c4=O)cc3)ccnc2c1 [Compound 530, 2-(4-fluoro-2-methylphenyl)-N-[4-[(7-methoxy-1,5-naphthyridin-4-yl)oxy]phenyl]-3-oxopyridazine-4-carboxamide] | 100 to 300 | < 100 | < 100 | 
COc1cc2nccc(Oc3ccc(NC(=O)c4nn(C)c(C)c(-c5ccc(F)cc5C)c4=O)cc3)c2nc1OC [Compound 517, N-[4-[(6,7-dimethoxy-1,5-naphthyridin-4-yl)oxy]phenyl]-5-(4-fluoro-2-methylphenyl)-1,6-dimethyl-4-oxopyridazine-3-carboxamide] | < 100 | < 100 | < 100 | 
COc1ccc2nccc(Oc3ccc(NC(=O)c4cn(C)c(CF)c(-c5ccc(F)cc5)c4=O)cc3F)c2n1 [Compound 561, N-[3-Fluoro-4-[(6-methoxy-1,5-naphthyridin-4-yl)oxy]phenyl]-6-(fluoromethyl)-5-(4-fluorophenyl)-1-methyl-4-oxopyridine-3-carboxamide] | 100 to 300 | > 300 | < 100 | 
C=C(C)c1cnc2c(Oc3ccc(NC(=O)c4cnc(C)c(-c5ccc(F)cc5C)c4O)cc3F)ccnc2c1 [Compound 450, 5-(4-fluoro-2-methylphenyl)-N-[3-fluoro-4-[(7-prop-1-en-2-yl-1,5-naphthyridin-4-yl)oxy]phenyl]-4-hydroxy-6-methylpyridine-3-carboxamide] | < 100 | < 100 | < 100 | 

More lines, now with the values ahead:

IC50 ([1]; protocol of Example D-2) [nM] | IC50 [2] [nM] | IC50 [3] [nM] | IC50 [1, 4] [nM] | SMILES
< 100 | < 100 | < 100 |  | COc1cc2nccc(Oc3ccc(NC(=O)c4c(C)ncc(-c5ccc(F)cc5C)c4O)cc3F)c2nc1OC [Compound 479, N-[4-[(6,7-dimethoxy-1,5-naphthyridin-4-yl)oxy]-3-fluorophenyl]-5-(4-fluoro-2-methylphenyl)-4-hydroxy-2-methylpyridine-3-carboxamide]
100 to 300 | < 100 | < 100 |  | COc1nc2c(Oc3ccc(NC(=O)c4cnc(C)c(-c5ccc(F)cc5C)c4O)cc3F)ccnc2cc1C [Compound 460, N-[3-fluoro-4-[(6-methoxy-7-methyl-1,5-naphthyridin-4-yl)oxy]phenyl]-5-(4-fluoro-2-methylphenyl)-4-hydroxy-6-methylpyridine-3-carboxamide]
< 100 | < 100 | < 100 |  | COc1cc2nccc(Oc3ccc(NC(=O)c4c(C)nc(C)c(-c5ccc(F)cc5CO)c4O)cc3F)c2nc1OC [Compound 518, N-[4-[(6,7-dimethoxy-1,5-naphthyridin-4-yl)oxy]-3-fluorophenyl]-5-[4-fluoro-2-(hydroxymethyl]phenyl]-4-hydroxy-2,6-dimethylpyridine-3-carboxamide]
< 100 | < 100 | < 100 |  | C=C(C)c1cnc2c(Oc3ccc(NC(=O)c4c(C)nc(C)c(-c5ccc(F)cc5)c4O)cc3)ccnc2c1 [Compound 455, 5-(4-fluorophenyl)-4-hydroxy-2,6-dimethyl-N-[4-[(7-prop-1-en-2-yl-1,5-naphthyridin-4-yl)oxy]phenyl]pyridine-3-carboxamide]
< 100 | < 100 | < 100 |  | C=C(C)c1cnc2c(Oc3ccc(NC(=O)c4cnc(C)c(-c5ccc(F)cc5)c4O)cc3)ccnc2c1 [Compound 454, 5-(4-fluorophenyl)-4-hydroxy-6-methyl-N-[4-[(7-prop-1-en-2-yl-1,5-naphthyridin-4-yl)oxy]phenyl]pyridine-3-carboxamide]
< 100 | < 100 | < 100 |  | COCc1nc(C)c(-c2ccc(F)cc2)c(O)c1C(=O)Nc1ccc(Oc2ccnc3ccc(OC)nc23)cc1 [Compound 510, 5-(4-fluorophenyl)-4-hydroxy-2-(methoxymethyl)-N-[4-[(6-methoxy-1,5-naphthyridin-4-yl)oxy]phenyl]-6-methylpyridine-3-carboxamide]
 | < 100 | < 100 | < 100 | COCCOc1ccc2nccc(Oc3ccc(NC(=O)c4c(C)nc(C)c(-c5ccc(F)cc5)c4O)cc3F)c2n1 [Compound 349, N-[3-fluoro-4-[[6-(2-methoxyethoxy)-1,5-naphthyridin-4-yl]oxy]phenyl]-5-(4-fluorophenyl)-4-hydroxy-2,6-dimethylpyridine-3-carboxamide]
< 100 | < 100 | < 100 |  | COCCOc1cnc2c(Oc3ccc(NC(=O)c4ccc(C)n(-c5ccc(F)cc5)c4=O)cc3F)ccnc2c1 [Compound 552, N-[3-Fluoro-4-[[7-(2-methoxyethoxy)-1,5-naphthyridin-4-yl]oxy]phenyl]-1-(4-fluorophenyl)-6-methyl-2-oxopyridine-3-carboxamide]
< 100 | < 100 | < 100 |  | COc1cnc2c(Oc3ccc(NC(=O)c4nn(C)c(C)c(-c5ccc(F)cc5C)c4=O)cc3)ccnc2c1 [Compound 514, 5-(4-fluoro-2-methylphenyl)-N-[4-[(7-methoxy-1,5-naphthyridin-4-yl)oxy]phenyl]-1,6-dimethyl-4-oxopyridazine-3-carboxamide]
 | < 100 | < 100 | < 100 | COc1cc2nccc(Oc3ccc(NC(=O)c4ccc(C)n(-c5ccc(F)cc5)c4=O)cc3F)c2nc1OC [Compound 254, N-[4-[(6,7-Dimethoxy-1,5-naphthyridin-4-yl)oxy]-3-fluorophenyl]-1-(4-fluorophenyl)-6-methyl-2-oxopyridine-3-carboxamide]
